Measured values as given in ChEMBL document CHEMBL4616724, “Topoisomerase Inhibitors Addressing Fluoroquinolone Resistance in Gram-Negative Bacteria” (J Med Chem, 2020).
Converted amounts (≈) assume the structure as drawn.

Experiments:
[1] = Efflux ratio of apparent permeability in human Caco2 cells at 10 uM after 2 hrs by LC-MS/MS analysis; type: ADME, cell-based; settings: Caco-2
[2] = Photoirradiation factor, ratio of IC50 for BALB/c mouse 3T3 cells under dark condition to IC50 for BALB/c mouse 3T3 cells under 5 J/cm2 sunlight irradiation by neutral red uptake assay; type: ADME, cell-based, NIH3T3; settings: BALB/c 3T3 cells, read-out: Ratio IC50
[3] = system: Pseudomonas aeruginosa; test: Antibacterial activity against Pseudomonas aeruginosa clinical isolates by CLSI-based broth microdilution assay; type: functional
[4] = Tmax in mouse at 5 mg/kg, po measured up to 24 hrs by LC-MS/MS analysis; type: ADME, organism-based; settings: in vivo
[5] = Inhibition of recombinant full-length C-terminal His6-tagged Escherichia coli DNA topoisomerase 4 subunit ParC/ParE using kinetoplast DNA as substrate preincubated for 30 mins followed by substrate addition and measured after 1 hr in presence of ATP by size exclusion chromatography
[6] = system: Proteus mirabilis; test: Antibacterial activity against Proteus mirabilis clinical isolates by CLSI-based broth microdilution assay; type: functional
[7] = Terminal half life in rat at 5 mg/kg, iv measured up to 24 hrs by LC-MS/MS analysis; type: ADME, organism-based; settings: in vivo, read-out: beta t1/2 (converted)
[8] = system: Morganella morganii; test: Antibacterial activity against Morganella morganii clinical isolates by CLSI-based broth microdilution assay; type: functional
[9] = system: Pseudomonas aeruginosa; test: Antibacterial activity against Pseudomonas aeruginosa K1542/K767 harboring MexB/MexXY deletion mutant by CLSI-based broth microdilution assay; type: functional
[10] = Tmax in rat at 10 mg/kg, po measured up to 24 hrs by LC-MS/MS analysis; type: ADME, organism-based; settings: in vivo
[11] = Protein binding in Sprague-Dawley rat plasma at 10 uM incubated for 4 hrs under shaking condition by LC-MS/MS analysis; type: ADME, cell-free; settings: read-out: PPB (converted)
[12] = system: Serratia marcescens; test: Antibacterial activity against Serratia marcescens clinical isolates by CLSI-based broth microdilution assay; type: functional
[13] = system: Escherichia coli; test: Antibacterial activity against wild type Escherichia coli ATCC 25922 at pH 7.4 by CLSI-based broth microdilution assay; type: functional
[14] = system: K562; test: Cytotoxicity against human K562 cells assessed as reduction in cell viability after 72 hrs by Cell-titer Glo assay; type: cell-based; settings: K562, 72 h
[15] = Terminal half life in mouse at 5 mg/kg, iv measured up to 24 hrs by LC-MS/MS analysis; type: ADME, organism-based; settings: in vivo, read-out: beta t1/2 (converted)
[16] = Oral bioavailability in mouse at 5 mg/kg measured up to 24 hrs by LC-MS/MS analysis; type: ADME, organism-based; settings: in vivo
[17] = molecular target: DNA gyrase (Escherichia coli, UniProt P0AES4+P0AES6); test: Inhibition of recombinant full-length C-terminal His6-tagged Escherichia coli DNA gyrase AB supercoiling activity using relaxed DNA as substrate preincubated for 30 mins followed by substrate addition and measured after 2 hrs in presence of ATP by size exclusion HPLC analysis; type: protein-complex assay
[18] = system: HepG2; test: Cytotoxicity against human HepG2 cells assessed as reduction in cell viability after 72 hrs by Cell-titer Glo assay; type: cell-based; settings: HepG2, 72 h
[19] = Dose normalized AUC in mouse at 5 mg/kg, po measured up to 24 hrs by LC-MS/MS analysis; type: ADME, organism-based; settings: in vivo
[20] = Solubility of the compound in pH 7 PBS incubated for 24 hrs under gently shaking condition by UPLC/UV/CLND/MS analysis; type: physicochemical; settings: PBS, pH 7
[21] = system: Citrobacter; test: Antibacterial activity against Citrobacter clinical isolates by CLSI-based broth microdilution assay; type: functional
[22] = Intrinsic clearance in rat liver microsomes at 1 uM in presence of NADPH and measured up to 30 mins by LC-MS/MS analysis; type: ADME, Microsome; settings: read-out: CLH
[23] = Dissociation constant, pKa of the compound by UV metric method; type: physicochemical
[24] = n-Octanol-PBS buffer partition coefficient, log D of the compound at pH 7.4 after overnight incubation by LC/UV/qTOF analysis; type: physicochemical
[25] = system: Escherichia coli; test: Antibacterial activity against Escherichia coli ATCC 25922 infected in mouse model of neutropenic thigh infection compound administered subcutaneously 2 hrs post infection and measured after 24 hrs by serial dilution method; type: functional
[26] = Clearance in rat at 5 mg/kg, iv or 10 mg/kg, po measured up to 24 hrs by LC-MS/MS analysis; type: ADME, organism-based; settings: in vivo
[27] = Dose normalized Cmax in mouse at 5 mg/kg, po measured up to 24 hrs by LC-MS/MS analysis; type: ADME, organism-based; settings: in vivo
[28] = Dark toxicity in BALB/c mouse 3T3 cells assessed as reduction in cell viability incubated for 1 hr prior to 50 mins incubation under dark condition followed by replacement of medium and measured after 24 hrs by neutral red uptake assay; type: cell-based, NIH3T3; settings: BALB/c 3T3 cells
[29] = Oral bioavailability in rat at 10 mg/kg measured up to 24 hrs by LC-MS/MS analysis; type: ADME, organism-based; settings: in vivo
[30] = Intrinsic clearance in human liver microsomes at 1 uM in presence of NADPH and measured up to 30 mins by LC-MS/MS analysis; type: ADME, Microsome; settings: read-out: CLH
[31] = Volume of distribution at steady state in rat at 5 mg/kg, iv or 10 mg/kg, po measured up to 24 hrs by LC-MS/MS analysis; type: ADME, organism-based; settings: in vivo, read-out: Vdss
[32] = system: Escherichia coli; test: Antibacterial activity against Escherichia coli BW25113/JW0451-2 harboring AcrB deletion mutant by CLSI-based broth microdilution assay; type: functional
[33] = Protein binding in CD1 mouse plasma at 10 uM incubated for 4 hrs under shaking condition by LC-MS/MS analysis; type: ADME, cell-free; settings: read-out: PPB (converted)
[34] = system: Escherichia coli; test: Ratio of MIC for antibacterial activity against wild type Escherichia coli ATCC 25922 at pH 5.8 to MIC for antibacterial activity against wild type Escherichia coli ATCC 25922 at pH 7.4; type: functional
[35] = system: Escherichia coli; test: Antibacterial activity against wild type Escherichia coli ATCC 25922 at pH 5.8 by CLSI-based broth microdilution assay; type: functional
[36] = Dose normalized Cmax in rat at 10 mg/kg, po measured up to 24 hrs by LC-MS/MS analysis; type: ADME, organism-based; settings: in vivo
[37] = system: Klebsiella pneumoniae; test: Antibacterial activity against Klebsiella pneumoniae clinical isolates by CLSI-based broth microdilution assay; type: functional
[38] = system: Enterobacter; test: Antibacterial activity against Enterobacter clinical isolates by CLSI-based broth microdilution assay; type: functional
[39] = system: Pseudomonas aeruginosa; test: Antibacterial activity against wild type Pseudomonas aeruginosa PAO1 K767 by CLSI-based broth microdilution assay; type: functional
[40] = Intrinsic clearance in mouse liver microsomes at 1 uM in presence of NADPH and measured up to 30 mins by LC-MS/MS analysis; type: ADME, Microsome; settings: read-out: CLH

For Cc1c(N2CC3CC3(N)C2)c(F)cc2c(CN)c(F)c(=O)n(C3CC3)c12 (centres undefined), the efflux ratio at 2 h, 10 µM [1] was 1.8, the selectivity ratio [2] was 621 and the MIC [3] was 1 to 32 µg/mL (≈ 2.77 to 88.8 µM). It also gave an MIC50 [3] of 8 µg/mL (≈ 22.2 µM), an MIC90 [3] of 32 µg/mL (≈ 88.8 µM) and a Tmax [4] of 0.5 h. It also gave an IC50 [5] of 0.81 µM, an MIC [6] of 0.06 to 32 µg/mL (≈ 0.166 to 88.8 µM) and an MIC50 [6] of 1 µg/mL (≈ 2.77 µM). The MIC90 [6] was 8 µg/mL (≈ 22.2 µM), the half-life [7] was 8.2 h and the MIC [8] was 0.06 to 32 µg/mL (≈ 0.166 to 88.8 µM). For the same molecule, the MIC50 [8] was 1 µg/mL (≈ 2.77 µM), the MIC90 [8] was 8 µg/mL (≈ 22.2 µM) and the MIC [9] was 0.25 µg/mL (≈ 0.694 µM). It also gave a Tmax [10] of 1.3 h, a fraction unbound at 4 h, 10 µM [11] of 0.42 and an MIC [12] of 0.06 to 32 µg/mL (≈ 0.166 to 88.8 µM). The MIC50 [12] was 1 µg/mL (≈ 2.77 µM), the MIC90 [12] was 8 µg/mL (≈ 22.2 µM) and the MIC [13] was 0.06 µg/mL (≈ 0.166 µM). It also gave an EC50 [14] of 40 µM, a half-life [15] of 1.7 h and a bioavailability [16] of 36%. The IC50 [17] was 1.25 µM, the EC50 [18] was 82 µM and the AUC/dose [19] was 0.31 µM·h/mg/kg. The solubility at 24 h [20] was 1280 µg/mL (≈ 3540 µM), the MIC [21] was 0.06 to 32 µg/mL (≈ 0.166 to 88.8 µM) and the MIC50 [21] was 1 µg/mL (≈ 2.77 µM). The MIC90 [21] was 8 µg/mL (≈ 22.2 µM), the microsomal CLint at 1 µM [22] was 117 µL/min/mg and the pKa [23] was 7.6 to 8. For the same molecule, the logD [24] was 1.1, the MIC [25] was 0.06 µg/mL (≈ 0.166 µM) and the clearance [26] was 71 mL/min/kg. For the same molecule, the Cmax/dose [27] was 0.1 µM/mg/kg, the IC50 at 110 min [28] was 1000 µM and the bioavailability [29] was 15%. For the same molecule, the microsomal CLint at 1 µM [30] was 18 µL/min/mg, the Vd [31] was 24.1 L/kg and the MIC [32] was no more than 0.03 µg/mL. For the same molecule, the fraction unbound at 4 h, 10 µM [33] was 0.68, the Ratio [34] was 512 and the MIC [35] was 32 µg/mL (≈ 88.8 µM). It also gave a Cmax/dose [36] of 0.01 µM/mg/kg, an MIC [37] of 0.25 to 32 µg/mL (≈ 0.694 to 88.8 µM) and an MIC50 [37] of 4 µg/mL (≈ 11.1 µM). For the same molecule, the MIC90 [37] was 16 µg/mL (≈ 44.4 µM), the MIC [38] was 0.06 to 32 µg/mL (≈ 0.166 to 88.8 µM) and the MIC50 [38] was 1 µg/mL (≈ 2.77 µM). The MIC90 [38] was 8 µg/mL (≈ 22.2 µM), the MIC [39] was 1 µg/mL (≈ 2.77 µM) and the microsomal CLint at 1 µM [40] was 40 µL/min/mg.
